# Reference: patent US20090111697A1, “PROPIONIC ACID AS AN HERBICIDE” (Marrone Organic Innovations, priority 2007, published 2009)
# How the values were obtained:
# [1] = test system: Lactuca sativa (lettuce) seed; assay: Germination of lettuce seeds in 96-well plate, dilution series; type: in vivo; conditions: 11 days; for germination: 75 ul per well
# Method: The phytotoxic effects of propionic and formic acids were tested on germinating dicot seeds. A single seed of Lactuca sativa (lettuce) was placed in each well of a 96-well plate followed by a 75-ul aliquot of each solution in a stepwise (1:2) dilution series with DI water from 5% to 0%. DI water was used as a control. The plate was sealed with a plastic cover, and placed under greenhouse lights (12 hr light/dark cycle) for 11 days after which the germination at each concentration was recorded. See the results below.
# [2] = test system: Seedlings of Lactuca sativa (lettuce); assay: High-throughput 96-well post-emergence assay on lettuce seedlings; type: in vivo
# Method: A high-throughput 96-well assay was used to test the efficacy of propionic acid as a post-emergence, non-selective herbicide. Seedlings of Lactuca sativa (lettuce) were grown in water agar in 96-well plates under continuous light. Propionic acid was added on the seedlings at a 2×-dilution series from 20% to 0%, and the minimum concentration needed for killing the seedling was recorded the next day. According to the results, propionic acid at a concentration of 0.156% was able to kill the lettuce seedling, whereas propionic acid at a concentration of 0.08% was not harmful for the plant.
# [3] = test system: Lactuca sativa (lettuce) seeds; assay: Pre-emergence pot test, propionic acid in corn gluten meal granules, lettuce; type: in vivo; conditions: one week
# Method: (§1) To further test the inhibitory effect of propionic acid on germinating seeds, pots with 6-cm diameter were filled with 60 mL of silty clay loam soil passed through a 2-mm sieve, and five (5) seeds of either Lactuca sativa (lettuce, representing a broadleaf plant) or Poa annua (annual bluegrass, representing a grass weed) were planted on the top. A solid form of the composition containing corn gluten meal granules (1-2 mm diameter) soaked in 0%, 10%, 15% or 20% propionic acid solution and dried were placed on the top of the soil at rates 0.1, 0.25, and 0.5 g/pot. The pots were kept at optimum water content under growth lights with a 12-h light/dark period at room temperature, and the number of germinated seeds was counted after one week. The results were reported as a percent of weed seeds germinated relative to the control treatment with no corn gluten meal added.
# [4] = test system: Poa annua (annual bluegrass) seeds; assay: Pre-emergence pot test, propionic acid in corn gluten meal granules, annual bluegrass; type: in vivo; conditions: one week
# Method: as §1
# [5] = test system: Poa annua (annual bluegrass); assay: Post-emergence spray test on annual bluegrass, 0.5-20%; type: in vivo; conditions: 2 mL spray, four days after treatment
# Method: Pots with 6-cm diameter were filled with potting mix, and about thirty (30) seeds of Poa annua (annual bluegrass, representing a grass weed) were planted on the top. The seeds were germinated and the plants grown at optimum water content under growth lights with a 12-h light/dark period at room temperature until they were about 3 inches tall. To test the post-emergence effect of propionic acid, the plants were sprayed with 2 mL of water solutions containing increasing concentrations of propionic acid. The following concentrations (v/v %) were used: 0% (control), 0.5% 2.5%, 5%, 10%, and 20%. the plants were observed four days after the treatment.
# [6] = test system: Poa annua; assay: Post-emergence minimum concentration study in peat pots, 2-10%; type: in vivo; conditions: Poa annua in small peat pots, sprayed
# Text: To further test the minimum concentration of propionic acid required to control Poa annua (as an example of a grass weed) another study was set up in small peat pots using concentrations 0% (control), 2%, 4%, 6%, 8% and 10% of propionic acid. According to the results, a concentration of 8-10% is needed for good control.
# [7] = Solubility of hinokitiol in solvents; type: physicochemical; conditions: ambient conditions
# Text: The solubility of hinokitiol in proprionic acid was 60% w/w or 3 parts hinokitiol to 2 parts propionic acid by weight, under ambient conditions. Under the correct conditions the solubility of hinokitiol in propionic acid would exceed 3 parts hinokitiol to 2 parts propionic acid, by weight. Under ambient conditions, the maximum solubility of hinokitiol in ethanol is 50% w/w or 1 part hinokitiol to 1 part ethanol by weight.
# [8] = granules soaked in 10% propionic acid, 0.1 g/pot
# [9] = granules soaked in 10% propionic acid, 0.25 g/pot
# [10] = granules soaked in 10% propionic acid, 0.5 g/pot
# [11] = granules soaked in 15% propionic acid, 0.1 g/pot
# [12] = granules soaked in 15% propionic acid, 0.25 g/pot
# [13] = granules soaked in 15% propionic acid, 0.5 g/pot
# [14] = granules soaked in 20% propionic acid, 0.1 g/pot
# [15] = granules soaked in 20% propionic acid, 0.25 g/pot
# [16] = granules soaked in 20% propionic acid, 0.5 g/pot
compound,measurement,setting,value
"O=CO [Formic Acid, reference compound]",germination,[1]; 0.005% solution,+
same,germination,[1]; 0.01% solution,+ and −
same,germination,[1]; 0.02% solution,+ and −
same,germination,[1]; 0.05% solution,− and +
same,germination,[1]; 0.09% solution,−
same,germination,[1]; 0.19% solution,−
same,germination,[1]; 0.36% solution,−
same,germination,[1]; 0.75% solution,−
same,germination,[1]; 1.25% solution,−
same,germination,[1]; 2.50% solution,−
same,germination,[1]; 5.00% solution,−
CCC(=O)O [Propionic acid],germination,[1]; 0.005% solution,+
same,germination,[1]; 0.01% solution,+
same,germination,[1]; 0.02% solution,+ and −
same,germination,[1]; 0.05% solution,− and +
same,germination,[1]; 0.09% solution,−
same,germination,[1]; 0.19% solution,−
same,germination,[1]; 0.36% solution,−
same,germination,[1]; 0.75% solution,−
same,germination,[1]; 1.25% solution,−
same,germination,[1]; 2.50% solution,−
same,germination,[1]; 5.00% solution,−
same,threshold value for complete inhibition of seed germination,[1]; lettuce seed,0.09%
same,effect on the seedling,"[2]; concentration of 0.08%, next day",not harmful
same,minimum concentration needed for killing the seedling,"[2]; lettuce seedlings, recorded the next day",0.156%
same,germination rate (%) relative to untreated control,[3]; [8],50%
same,germination rate (%) relative to untreated control,[3]; [9],75%
same,germination rate (%) relative to untreated control,[3]; [10],42%
same,germination rate (%) relative to untreated control,[3]; [11],83%
same,germination rate (%) relative to untreated control,[3]; [12],25%
same,germination rate (%) relative to untreated control,[3]; [13],42%
same,germination rate (%) relative to untreated control,[3]; [14],42%
same,germination rate (%) relative to untreated control,[3]; [15],67%
same,germination rate (%) relative to untreated control,[3]; [16],33%
same,germination rate (%) relative to untreated control,[4]; [8],37%
same,germination rate (%) relative to untreated control,[4]; [9],44%
same,germination rate (%) relative to untreated control,[4]; [10],22%
same,germination rate (%) relative to untreated control,[4]; [11],44%
same,germination rate (%) relative to untreated control,[4]; [12],52%
same,germination rate (%) relative to untreated control,[4]; [13],30%
same,germination rate (%) relative to untreated control,[4]; [14],44%
same,germination rate (%) relative to untreated control,[4]; [15],37%
same,germination rate (%) relative to untreated control,[4]; [16],96%
same,"herbicidal effect, visual observations",[5]; 0.5% (v/v) in water,no herbicidal effect
same,"herbicidal effect, visual observations",[5]; 10% (v/v) in water,"symptoms of wilting, scorching and eventually, death"
same,"herbicidal effect, visual observations",[5]; 20% (v/v) in water,"symptoms of wilting, scorching and eventually, death"
same,concentration needed for good control,[6],8-10%
CC(C)c1cccc(=O)c(O)c1 [hinokitiol],maximum solubility in ethanol,[7],50 % w/w
same,solubility in propionic acid,[7],60 % w/w
